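In this assay, cells in 96-well plates receive the compound at five concentrations for 48 hours. Endpoints are linearly interpolated between the surrounding concentrations. Abbreviation: GI50, concentration required for 50% inhibition of growth.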 Active and inactive are the calls of the source. No stated cut-off is given here; in the data, active = GI50 up to about 1.1 µM and inactive = higher.
Columns and labels:
Assay in all cases: growth of human tumour cells (NCI), 48 h
SF-295 = test system: SF-295
KM12 = test system: KM12
ACHN = test system: ACHN
OVCAR-3 = test system: OVCAR-3
CAKI-1 = test system: CAKI-1
MDA-MB-435 = test system: MDA-MB-435
OVCAR-5 = test system: OVCAR-5
RXF 393 = test system: RXF 393
SK-MEL-28 = test system: SK-MEL-28
MOLT-4 = test system: MOLT-4
SF-539 = test system: SF-539
NCI-H226 = test system: NCI-H226
786-0 = test system: 786-0
IGROV-1 = test system: IGROV-1
NCI/ADR-RES = test system: NCI/ADR-RES
MDA-MB-231 = test system: MDA-MB-231
HCT-116 = test system: HCT-116
K562 = test system: K562
A498 = test system: A498
NCI-H23 = test system: NCI-H23
OVCAR-4 = test system: OVCAR-4
LOX IMVI = test system: LOX IMVI
Malme-3M = test system: Malme-3M
CCRF-CEM = test system: CCRF-CEM
A549 = test system: A549
SN12C = test system: SN12C
MCF7 = test system: MCF7
SNB-75 = test system: SNB-75
UO-31 = test system: UO-31
PC-3 = test system: PC-3
M14 = test system: M14
SK-MEL-5 = test system: SK-MEL-5
SNB-19 = test system: SNB-19
UACC-62 = test system: UACC-62
OVCAR-8 = test system: OVCAR-8
DU-145 = test system: DU-145
T47D = test system: T47D
HOP-62 = test system: HOP-62
SK-OV-3 = test system: SK-OV-3
SF-268 = test system: SF-268
SW-620 = test system: SW-620
Hs-578T = test system: Hs-578T
MDA-N = test system: MDA-N
SK-MEL-2 = test system: SK-MEL-2
HOP-92 = test system: HOP-92
HCT-15 = test system: HCT-15
NCI-H460 = test system: NCI-H460
HL-60 = test system: HL-60
UACC-257 = test system: UACC-257
NCI-H522 = test system: NCI-H522
EKVX = test system: EKVX
HCC 2998 = test system: HCC 2998
U-251 = test system: U-251
COLO 205 = test system: COLO 205
HT-29 = test system: HT-29
RPMI-8226 = test system: RPMI-8226
TK-10 = test system: TK-10
SR = test system: SR

COc1ccc2c(c1)N(C(C)=O)CN1C(=O)CCC21 (stereo not drawn)
GI50 (SF-295): > 100 µM (inactive)
GI50 (KM12): > 100 µM (inactive)
GI50 (ACHN): > 100 µM (inactive)
GI50 (OVCAR-3): > 100 µM (inactive)
GI50 (CAKI-1): > 100 µM (inactive)
GI50 (MDA-MB-435): > 100 µM (inactive)
GI50 (OVCAR-5): > 100 µM (inactive)
GI50 (RXF 393): > 100 µM (inactive)
GI50 (SK-MEL-28): > 100 µM (inactive)
GI50 (MOLT-4): 46 µM (inactive)
GI50 (SF-539): > 100 µM (inactive)
GI50 (NCI-H226): > 100 µM (inactive)
GI50 (786-0): > 100 µM (inactive)
GI50 (IGROV-1): > 100 µM (inactive)
GI50 (NCI/ADR-RES): > 100 µM (inactive)
GI50 (MDA-MB-231): > 100 µM (inactive)
GI50 (HCT-116): > 100 µM (inactive)
GI50 (K562): 79.6 µM (inactive)
GI50 (A498): > 100 µM (inactive)
GI50 (NCI-H23): > 100 µM (inactive)
GI50 (OVCAR-4): > 100 µM (inactive)
GI50 (LOX IMVI): > 100 µM (inactive)
GI50 (Malme-3M): > 100 µM (inactive)
GI50 (CCRF-CEM): 41.7 µM (inactive)
GI50 (A549): > 100 µM (inactive)
GI50 (SN12C): > 100 µM (inactive)
GI50 (MCF7): > 100 µM (inactive)
GI50 (SNB-75): > 100 µM (inactive)
GI50 (UO-31): > 100 µM (inactive)
GI50 (PC-3): > 100 µM (inactive)
GI50 (M14): > 100 µM (inactive)
GI50 (SK-MEL-5): > 100 µM (inactive)
GI50 (SNB-19): > 100 µM (inactive)
GI50 (UACC-62): > 100 µM (inactive)
GI50 (OVCAR-8): > 100 µM (inactive)
GI50 (DU-145): > 100 µM (inactive)
GI50 (T47D): > 100 µM (inactive)
GI50 (HOP-62): > 100 µM (inactive)
GI50 (SK-OV-3): > 100 µM (inactive)
GI50 (SF-268): > 100 µM (inactive)
GI50 (SW-620): > 100 µM (inactive)
GI50 (Hs-578T): > 100 µM (inactive)
GI50 (MDA-N): > 100 µM (inactive)
GI50 (SK-MEL-2): > 100 µM (inactive)
GI50 (HOP-92): > 100 µM (inactive)
GI50 (HCT-15): > 100 µM
GI50 (NCI-H460): > 100 µM (inactive)
GI50 (HL-60): 48.2 µM (inactive)
GI50 (UACC-257): > 100 µM (inactive)
GI50 (NCI-H522): > 100 µM (inactive)
GI50 (EKVX): > 100 µM (inactive)
GI50 (HCC 2998): > 100 µM (inactive)
GI50 (U-251): > 100 µM (inactive)
GI50 (COLO 205): > 100 µM (inactive)
GI50 (HT-29): > 100 µM (inactive)
GI50 (RPMI-8226): 49.3 µM (inactive)
GI50 (TK-10): > 100 µM (inactive)

Cc1ccc(-c2nnc(CCCCCCCCc3nnc(-c4ccc(C)cc4O)n3N)n2N)c(O)c1
GI50 (SF-295): 77.1 µM (inactive)
GI50 (KM12): > 100 µM (inactive)
GI50 (ACHN): > 100 µM (inactive)
GI50 (OVCAR-3): > 100 µM (inactive)
GI50 (CAKI-1): > 100 µM (inactive)
GI50 (MDA-MB-435): > 100 µM (inactive)
GI50 (OVCAR-5): > 100 µM (inactive)
GI50 (SK-MEL-28): > 100 µM (inactive)
GI50 (MOLT-4): 33 µM (inactive)
GI50 (SF-539): > 100 µM (inactive)
GI50 (786-0): 85.1 µM (inactive)
GI50 (IGROV-1): > 100 µM (inactive)
GI50 (NCI/ADR-RES): > 100 µM (inactive)
GI50 (MDA-MB-231): > 100 µM (inactive)
GI50 (HCT-116): > 100 µM (inactive)
GI50 (A498): > 100 µM (inactive)
GI50 (NCI-H23): > 100 µM (inactive)
GI50 (OVCAR-4): > 100 µM (inactive)
GI50 (LOX IMVI): > 100 µM (inactive)
GI50 (Malme-3M): > 100 µM (inactive)
GI50 (CCRF-CEM): > 10 µM (inactive)
GI50 (A549): > 100 µM (inactive)
GI50 (SN12C): > 100 µM (inactive)
GI50 (MCF7): > 100 µM (inactive)
GI50 (SNB-75): 33.9 µM (inactive)
GI50 (UO-31): > 100 µM (inactive)
GI50 (M14): > 100 µM (inactive)
GI50 (SNB-19): 61.8 µM (inactive)
GI50 (UACC-62): > 100 µM (inactive)
GI50 (OVCAR-8): > 100 µM (inactive)
GI50 (DU-145): > 100 µM (inactive)
GI50 (T47D): 56.5 µM (inactive)
GI50 (SK-OV-3): 39.2 µM (inactive)
GI50 (SF-268): > 100 µM (inactive)
GI50 (SW-620): > 100 µM (inactive)
GI50 (Hs-578T): 44.9 µM (inactive)
GI50 (MDA-N): > 100 µM (inactive)
GI50 (SR): > 100 µM (inactive)
GI50 (SK-MEL-2): > 100 µM (inactive)
GI50 (HOP-92): 9.71 µM (inactive)
GI50 (HCT-15): > 100 µM
GI50 (NCI-H460): > 100 µM (inactive)
GI50 (HL-60): > 10 µM (inactive)
GI50 (UACC-257): > 100 µM (inactive)
GI50 (NCI-H522): > 100 µM (inactive)
GI50 (EKVX): > 100 µM (inactive)
GI50 (HCC 2998): > 100 µM (inactive)
GI50 (U-251): > 100 µM (inactive)
GI50 (COLO 205): > 100 µM (inactive)
GI50 (RPMI-8226): > 100 µM (inactive)
GI50 (TK-10): > 100 µM (inactive)
